Peptide text beside a SMILES is read from it. * marks the point of attachment. Cbz = O=C(OCc1ccccc1)*; Acryloyl = C=CC(=O)*
Legend:
[1] = biological target: T1, Protein-glutamine gamma-glutamyltransferase (Homo sapiens) (UniProt P21980); assay: (§1) Irreversible inhibition of human TG2 using AL5 as substrate by colorimetric assay
T1 sequence (whole entry): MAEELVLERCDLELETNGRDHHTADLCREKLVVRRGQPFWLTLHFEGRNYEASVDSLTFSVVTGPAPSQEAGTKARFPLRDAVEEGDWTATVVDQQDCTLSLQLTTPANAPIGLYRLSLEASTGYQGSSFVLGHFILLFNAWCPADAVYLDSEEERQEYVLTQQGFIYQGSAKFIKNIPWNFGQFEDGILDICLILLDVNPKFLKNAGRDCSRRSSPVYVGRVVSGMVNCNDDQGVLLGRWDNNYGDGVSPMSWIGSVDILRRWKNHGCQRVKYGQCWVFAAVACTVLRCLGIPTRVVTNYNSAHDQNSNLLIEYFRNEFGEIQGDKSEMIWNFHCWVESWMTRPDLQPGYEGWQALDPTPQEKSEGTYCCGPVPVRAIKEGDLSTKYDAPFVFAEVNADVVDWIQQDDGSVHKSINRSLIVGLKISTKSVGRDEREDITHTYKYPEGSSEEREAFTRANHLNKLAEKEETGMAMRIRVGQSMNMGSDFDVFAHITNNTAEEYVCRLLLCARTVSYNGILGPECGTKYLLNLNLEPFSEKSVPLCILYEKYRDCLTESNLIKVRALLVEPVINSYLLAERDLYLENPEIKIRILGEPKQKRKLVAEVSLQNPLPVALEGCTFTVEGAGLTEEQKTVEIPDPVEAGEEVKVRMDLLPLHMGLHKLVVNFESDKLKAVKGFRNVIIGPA

[2] = biological target: T2, Protein-glutamine gamma-glutamyltransferase (Homo sapiens, UniProt P21980); assay: as §1
T2 sequence (P21980 whole entry): T1 sequence (whole entry)

[3] = biological target: T1, Protein-glutamine gamma-glutamyltransferase (Homo sapiens); assay: Ratio of kinact to Ki for human TG2 by colorimetric assay
[4] = biological target: T1, Protein-glutamine gamma-glutamyltransferase (Homo sapiens); assay: (§2) Irreversible inhibition of human TG2 using AL5 as substrate by double reciprocal plot method
[5] = biological target: T2, Protein-glutamine gamma-glutamyltransferase; assay: as §2
[6] = biological target: T1, Protein-glutamine gamma-glutamyltransferase (Homo sapiens); assay: Ratio of kinact to Ki for human TG2 by double reciprocal plot method
[7] = Inhibition of guinea pig liver TG2 using Z-Gln-Gly/DMPDA as substrate preincubated for 3 mins followed by protein addition; set-up: species or system Cavia porcellus
[8] = Inhibition of human ECS cells invasion by using Engelbreth-Holm-Swarm mouse tumor matrigel measured after 18 hrs by DAPI staining-based flourescence microscopy; assay type: functional, cell-based
[9] = organism: Cavia porcellus; assay: Ratio of Kinact to Ki for guinea pig liver TG2

Compound | Kinact [1] [min⁻¹] | Ki [2] [µM] | Ratio [3] [×10³ /M/min] | other results
C=CC(=O)NCCCC[C@H](NC(=O)OCc1ccccc1)C(=O)N1CCN(S(=O)(=O)c2cccc3ccccc23)CC1 | 0.39 | 10.4 | 37.2 | –
C=CC(=O)NCCCC[C@H](NC(=O)OCc1ccccc1)C(=O)N1CCN(C(=O)c2cccc3ccccc23)CC1 | – | 8.9 | – | –
C=CC(=O)NCCCC[C@H](NC(=O)OCc1ccccc1)C(=O)N1CCN(S(=O)(=O)C(C)C)CC1 | 0.5 | 9.1 | 54.7 | –
C=CC(=O)NCCCC[C@H](NC(=O)OCc1ccccc1)C(=O)N1CCN(C(=O)c2ccccc2)CC1 | 4.77 | 36.6 | 130 | –
C=CC(=O)NCCCC[C@H](NC(=O)OCc1ccccc1)C(=O)N1CCN(C(=O)c2cccnc2)CC1 | 1.44 | 23.4 | 61.4 | –
C=CC(=O)NCCCC[C@H](NC(=O)OCc1ccccc1)C(=O)N1CCN(C(=O)c2ccccn2)CC1 | 2.93 | 32.1 | 91.3 | –
C=CC(=O)NCCCC[C@H](NC(=O)OCc1ccccc1)C(=O)N1CCN(S(=O)(=O)Cc2ccccc2)CC1 | 0.47 | 14.7 | 34.9 | –
C=CC(=O)NCCCC[C@H](NC(=O)OCc1ccccc1)C(=O)N1CCN(S(=O)(=O)CC)CC1 | 1.42 | 36 | 39.4 | –
C=CC(=O)NCCCC[C@H](NC(=O)OCc1ccccc1)C(=O)N1CCN(c2ccccc2Cl)CC1 | 0.97 | 17.4 | 56 | –
C=CC(=O)NCCCC[C@H](NC(=O)OCc1ccccc1)C(=O)N1CCN(C(=O)c2cc3ccc(O)cc3oc2=O)CC1 | 0.69 | 11.2 | 62.1 | –
C=CC(=O)NCCCC[C@H](NC(=O)OCc1ccccc1)C(=O)N1CCN(S(=O)(=O)C2CCCCC2)CC1 | 0.69 | 11 | 62.9 | –
C=CC(=O)NCCCC[C@H](NC(=O)OCc1ccccc1)C(=O)N1CCN(C(=O)Cc2ccccc2)CC1 | 2.26 | 20 | 113 | –
C=CC(=O)NCCCC[C@H](NC(=O)OCc1ccccc1)C(=O)NCCCCNS(=O)(=O)c1cccc2c(N(C)C)cccc12 | – | – | – | Kinact [4]: 2.19 min⁻¹; Ki [5]: 27.1 µM; Ratio [6]: 80.8 ×10³ /M/min
C=CC(=O)NCCCC[C@H](NC(=O)OCc1ccccc1)C(=O)N1CCN(S(=O)(=O)c2ccccc2)CC1 | 0.47 | 8.8 | 53.3 | –
C=CC(=O)NCCCC[C@H](NC(=O)OCc1ccccc1)C(=O)N1CCN(C(=O)c2ccncc2)CC1 | 1.43 | 38.7 | 37 | –
C=CC(=O)NCCCC[C@H](NC(=O)OCc1ccccc1)C(=O)O | – | 60.3 | – | Ki [7]: 0.52 µM
C=CC(=O)NCCCC[C@H](NC(=O)OCc1ccccc1)C(=O)N1CCOCC1 | 1.47 | 28.9 | 51 | –
C=CC(=O)NCCCC[C@H](NC(=O)OCc1ccccc1)C(=O)N1CCN(C(=O)c2ccc3ccccc3c2)CC1 | 1.21 | 13.4 | 90.3 | –
C=CC(=O)NCCC[C@H](NC(=O)OCc1ccccc1)C(=O)N1CCN(S(=O)(=O)c2cccc3c(N(C)C)cccc23)CC1 | – | – | – | Kinact [4]: 1.18 min⁻¹; Ki [5]: 47.7 µM; Ratio [6]: 24.7 ×10³ /M/min
C=CC(=O)NCCCC[C@H](NC(=O)OCc1ccccc1)C(=O)NCCCNS(=O)(=O)c1cccc2c(N(C)C)cccc12 | – | – | – | Kinact [4]: 0.85 min⁻¹; Ki [5]: 30.5 µM; Ratio [6]: 27.6 ×10³ /M/min
C=CC(=O)NCCCC[C@H](NC(=O)OCc1ccccc1)C(=O)N1CCN(S(=O)(=O)c2cccc3c(N(C)C)cccc23)CC1 | – | 12.9 | – | EC50 [8]: 3.9 µM
C=CC(=O)NCCCC[C@H](NC(=O)OCc1ccccc1)C(=O)N1CCN(S(=O)(=O)c2ccc3ccccc3c2)CC1 | 0.38 | 6.7 | 57.3 | –
C=CC(=O)NCCCC[C@H](NC(=O)OCc1ccccc1)C(=O)NCCNS(=O)(=O)c1cccc2c(N(C)C)cccc12 | – | – | – | Kinact [4]: 1.45 min⁻¹; Ki [5]: 23.5 µM; Ratio [6]: 61.5 ×10³ /M/min
C=CC(=O)NCCCC[C@H](NC(=O)OCc1ccccc1)C(=O)N1CCN(S(C)(=O)=O)CC1 | 0.5 | 6.4 | 78.4 | –
C=CC(=O)NCCCC[C@H](NC(=O)OCc1ccccc1)C(N)=O | – | – | – | Kinact [4]: 1.08 min⁻¹; Ki [5]: 35.1 µM; Ratio [6]: 30.7 ×10³ /M/min
C=CC(=O)NCCCC[C@H](NC(=O)OCc1ccccc1)C(=O)N1CCN(C(C)=O)CC1 | 2.06 | 52.1 | 36.9 | –
C=CC(=O)NCCCC[C@H](NC(=O)OCc1ccccc1)C(=O)NCC(=O)O (Cbz-Lys(Acryloyl)-Gly-OH) | 1.26 | 48.1 | 26.1 | Ratio [9]: 3 ×10⁶ /M/min; Ki [7]: 0.15 µM
C=CC(=O)NCCCC[C@H](NC(=O)OCc1ccccc1)C(=O)NCC(=O)OC (Cbz-Lys(Acryloyl)-Gly-OMe) | 1.45 | 40 | 36.2 | –
C=CC(=O)NCCCC[C@H](NC(=O)OCc1ccccc1)C(=O)N1CCN(S(=O)(=O)c2cccs2)CC1 | 1.48 | 40.1 | 36.8 | –
